From patent US20240115536A1, “DUAL-ACTING PHARMACEUTICAL COMPOSITIONS BASED ON SUPERSTRUCTURES OF ANGIOTENSIN RECEPTOR ANTAGONIST/BLOCKER (ARB) AND NEUTRAL ENDOPEPTIDASE (NEP) INHIBITOR” (Novartis AG, priority 2007, published 2024)
Where two headings read alike, the source gives them in different places.

Legend:
[1] = Measurement of pharmacokinetic parameters, ascending single dose 5, 20, 80 mg LCZ696 vs 40 mg Diovan
Procedure: The study employs a two-period, parallel group, ascending single dose (5, 20, 80 mg of LCZ696 and 40 mg Diovan® (marketed formulation of valsartan), placebo controlled design with dose selection based on FDA exploratory-IND guidance. The dosages of LCZ696 are obtained by using the 5 mg and 50 mg tablets as manufactured above and employing for the 20 mg and 80 mg dose multiple tablets of 5 mg and/or 50 mg strength.
To enable comparison of the exposure to valsartan between LCZ696 and Diovan® at different dose levels, valsartan's exposure (AUC) and Cmax values are normalized to the actual amount of anhydrous salt-free- valsartan administered (normalized by mg-equivalent). The AUC0-24 values are calculated as ng·h/ml/mg-equivalent of valsartan, and the geometric means are compared.

[2] = Dissolution testing, USP paddle method, pH 6.8 phosphate buffer, 50 rpm; assay type: physicochemical
Procedure: The term “dissolution” as used herein refers to a process by which a solid substance, here the active ingredients, is dispersed in molecular form in a medium. The dissolution rate of the active ingredients of the pharmaceutical oral fixed dose combination of the invention is defined by the amount of drug substance that goes in solution per unit time under standardized conditions of liquid/solid interface, temperature and solvent composition. The dissolution rate is measured by standard methods known to the person skilled in the art, see the harmonized procedure set forth in the pharmacopeias USP <711> and EP 2.9.3 and JP. For the purposes of this invention, the test is for measuring the dissolution of the individual active ingredients is performed following pharmacopeia USP <711> at pH 6.8 using a paddle stirring element at 50 rpm (rotations per minute) or alternatively at pH 4.5 using a paddle stirring element at 75 rpm as specified. The dissolution medium is preferably a buffer, typically a phosphate buffer, especially one as described in the example “Dissolution Test”.
The tablets of the Examples are tested for their dissolution in 900 ml of pH 6.8 phosphate buffer with paddles at 50 rpm.
The assembly consists of the following: a covered vessel made of glass or other inert, transparent material; a motor, and a paddle formed from a blade and shaft as the stirring element. The vessel is partially immersed in a suitable water bath of any convenient size or placed in a heating jacket. The water bath or heating jacket permits holding the temperature inside the vessels at 37±0.5° during the test and keeping the bath fluid in constant, smooth motion. No part of the assembly, including the environment in which the assembly is placed, contributes significant motion, agitation, or vibration beyond that due to the smoothly rotating stirring element. Apparatus that permits observation of the specimen and stirring element during the test is has the following dimensions and capacities: the height is 160 mm to 210 mm and its inside diameter is 98 mm to 106 mm. Its sides are flanged at the top. A fitted cover may be used to retard evaporation. The shaft is positioned so that its axis is not more than 2 mm at any point from the vertical axis of the vessel and rotates smoothly without significant wobble. The vertical center line of the blade passes through the axis of the shaft so that the bottom of the blade is flush with the bottom of the shaft. The design of the paddle is as shown in USP <711>, FIG. 2. The distance of 25±2 mm between the blade and the inside bottom of the vessel is maintained during the test. The metallic or suitably inert, rigid blade and shaft comprise a single entity. A suitable two-part detachable design may be used provided the assembly remains firmly engaged during the test. The paddle blade and shaft may be coated with a suitable inert coating. The dosage unit is allowed to sink to the bottom of the vessel before rotation of the blade is started. A small, loose piece of nonreactive material such as not more than a few turns of wire helix may be attached to dosage units that would otherwise float. Other validated sinker devices may be used.
1L of a buffered aqueous solution, adjusted to pH 6.8±0.05 (0.05 M Phosphate buffer solution obtained by dissolving 6.805 g of potassium dihydrogen phosphate and 0.896 g of sodium hydroxide in and diluting to 1000 ml with water, and adjusting the pH to 6.80±0.05 using 0.2 M sodium hydroxide or 1 M phosphoric acid; referred hereinafter as “Dissolution Medium”) is placed in the vessel of the apparatus, the apparatus is assembled, the Dissolution Medium is equilibrated to 37±0.5°, and the thermometer is removed. 1 dosage form (e.g. tablet or capsule) is placed on the apparatus, taking care to exclude air bubbles from the surface of the dosage-form unit, and immediately the apparatus is operated at a rate of 50+2 rpm. […]

[3] = for AUC0-24 for valsartan / Cmax for valsartan / t1/2 for valsartan / tmax for valsartan: healthy volunteers
[4] = Cohort A (5 mg LCZ696; 40 mg Diovan)
[5] = Cohort B (20 mg LCZ696; 40 mg Diovan)
[6] = Cohort C (80 mg LCZ696; 40 mg Diovan)
[7] = Combined Cohorts A-B-C (pooled data)
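Wherever AUC0-24 for valsartan is given: randomized double-blind placebo-controlled parallel-group study with ascending single doses and 14-day daily dosing cohorts, pharmacokinetics measured in healthy volunteers.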
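Wherever Cmax for valsartan is given: randomized double-blind placebo-controlled parallel-group study with ascending single doses and 14-day daily dosing cohorts, pharmacokinetics measured in healthy volunteers.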
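Wherever accumulation of all analytes is given: randomized double-blind placebo-controlled parallel-group study with ascending single doses and 14-day daily dosing cohorts, pharmacokinetics measured in healthy volunteers.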
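Wherever t1/2 for valsartan is given: randomized double-blind placebo-controlled parallel-group study with ascending single doses and 14-day daily dosing cohorts, pharmacokinetics measured in healthy volunteers.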

Compound: CCCCC(=O)N(Cc1ccc(-c2ccccc2-c2nn[n-]n2)cc1)[C@H](C(=O)[O-])C(C)C.CCOC(=O)[C@H](C)C[C@@H](Cc1ccc(-c2ccccc2)cc1)NC(=O)CCC(=O)[O-].[Na+].[Na+].[Na+] [LCZ696, trisodium [3-((1S,3R)-1-biphenyl-4-ylmethyl-3-ethoxycarbonyl-1-butylcarbamoyl) propionate-(S)-3′-methyl-2′-(pentanoyl{2″-(tetrazol-5-ylate)biphenyl-4′-ylmethyl}amino)butyrate]hemipentahydrate]
- dose linearity of valsartan exposures ([1]; 5, 20, 80 mg LCZ696 single dose): dose linear
- AUC0-24, dose-normalized, geometric mean, valsartan [1, 4]: 364 ng * h/ml/mg-equivalent
- AUC0-24 ratio LCZ696/Diovan [1, 4]: 1.81
- AUC0-inf ratio LCZ696/Diovan [1, 4]: 1.81
- AUC0-inf, dose-normalized, geometric mean, valsartan [1, 4]: 372 ng * h/ml/mg-equivalent
- Cmax ratio LCZ696/Diovan [1, 4]: 2.09
- Cmax, dose-normalized, geometric mean, valsartan [1, 4]: 56 ng/ml/mg-equivalent
- AUC0-24, dose-normalized, geometric mean, valsartan [1, 5]: 280 ng * h/ml/mg-equivalent
- AUC0-24 ratio LCZ696/Diovan [1, 5]: 1.38
- AUC0-inf ratio LCZ696/Diovan [1, 5]: 1.38
- AUC0-inf, dose-normalized, geometric mean, valsartan [1, 5]: 284 ng * h/ml/mg-equivalent
- Cmax ratio LCZ696/Diovan [1, 5]: 1.69
- Cmax, dose-normalized, geometric mean, valsartan [1, 5]: 44 ng/ml/mg-equivalent
- AUC0-24, dose-normalized, geometric mean, valsartan [1, 6]: 244 ng * h/ml/mg-equivalent
- AUC0-24 ratio LCZ696/Diovan [1, 6]: 1.67
- AUC0-inf ratio LCZ696/Diovan [1, 6]: 1.64
- AUC0-inf, dose-normalized, geometric mean, valsartan [1, 6]: 245 ng * h/ml/mg-equivalent
- Cmax ratio LCZ696/Diovan [1, 6]: 2.1
- Cmax, dose-normalized, geometric mean, valsartan [1, 6]: 43 ng/ml/mg-equivalent
- AUC0-24, dose-normalized, geometric mean, valsartan [1, 7]: 292 ng * h/ml/mg-equivalent
- AUC0-24 ratio LCZ696/Diovan [1, 7]: 1.61
- AUC0-inf ratio LCZ696/Diovan [1, 7]: 1.6
- AUC0-inf, dose-normalized, geometric mean, valsartan [1, 7]: 296 ng * h/ml/mg-equivalent
- Cmax ratio LCZ696/Diovan [1, 7]: 1.95
- Cmax, dose-normalized, geometric mean, valsartan [1, 7]: 47 ng/ml/mg-equivalent
- tmax of valsartan free acid ([1]; oral administration): 1.8 ± 0.3 h
- enhanced oral bioavailability of valsartan free acid versus Diovan formulation ([1]; oral, analyte valsartan free acid, listed as therapeutic agent): 1.6 fold
- tmax for valsartan (mean) ([1]; single dose, range of cohort means): 1.3 to 1.8 h
- ratio of geometric means for AUC, LCZ696/Diovan ([1]; valsartan, dose-equivalent normalized, pooled cohorts): 161%
- mean valsartan free acid released ([2]; about 100 mg per unit dosage form, after 10 min): about 50%
- mean valsartan free acid released ([2]; about 100 mg per unit dosage form, after 20 min): about 85%
- mean valsartan free acid released ([2]; about 100 mg per unit dosage form, after 30 min): about 95%
- mean valsartan free acid released ([2]; about 200 mg per unit dosage form, after 10 min): about 50%
- mean valsartan free acid released ([2]; about 200 mg per unit dosage form, after 20 min): about 85%
- mean valsartan free acid released ([2]; about 200 mg per unit dosage form, after 30 min): about 95%
- mean valsartan free acid released ([2]; about 400 mg per unit dosage form, after 10 min): about 40%
- mean valsartan free acid released ([2]; about 400 mg per unit dosage form, after 20 min): about 70%
- mean valsartan free acid released ([2]; about 400 mg per unit dosage form, after 30 min): about 90%
- AUC0-24 for valsartan ([3]; 50 mg daily for 14 days): 6935 ng·h/mL
- Cmax for valsartan ([3]; 50 mg daily for 14 days): 1233 ng/mL
- t1/2 for valsartan ([3]; 50 mg daily for 14 days): 15.2 h
- tmax for valsartan ([3]; 50 mg daily for 14 days): 1.6 h
- AUC0-24 for valsartan ([3]; 200 mg daily for 14 days): 21079 ng·h/mL
- Cmax for valsartan ([3]; 200 mg daily for 14 days): 3990 ng/mL
- t1/2 for valsartan ([3]; 200 mg daily for 14 days): 22.1 h
- tmax for valsartan ([3]; 200 mg daily for 14 days): 1.8 h
- AUC0-24 for valsartan ([3]; 600 mg daily for 14 days): 58876 ng·h/mL
- Cmax for valsartan ([3]; 600 mg daily for 14 days): 8563 ng/mL
- t1/2 for valsartan ([3]; 600 mg daily for 14 days): 22.6 h
- tmax for valsartan ([3]; 600 mg daily for 14 days): 2.2 h
- AUC0-24 for valsartan ([3]; 900 mg daily for 14 days): 54920 ng·h/mL
- Cmax for valsartan ([3]; 900 mg daily for 14 days): 8960 ng/mL
- t1/2 for valsartan ([3]; 900 mg daily for 14 days): 15.0 h
- tmax for valsartan ([3]; 900 mg daily for 14 days): 4.9 h
- accumulation of all analytes ([3]; 50-900 mg LCZ696 once daily for 14 days): Minimal accumulation
- AUC0-24 for valsartan ([3]; single dose 200 mg): 16970 ng·h/mL
- Cmax for valsartan ([3]; single dose 200 mg): 3309 ng/mL
- t1/2 for valsartan ([3]; single dose 200 mg): 11.7 h
- tmax for valsartan ([3]; single dose 200 mg): 1.7 h
- AUC0-24 for valsartan ([3]; single dose 600 mg): 40645 ng·h/mL
- Cmax for valsartan ([3]; single dose 600 mg): 7269 ng/mL
- t1/2 for valsartan ([3]; single dose 600 mg): 16.6 h
- tmax for valsartan ([3]; single dose 600 mg): 1.9 h
- AUC0-24 for valsartan ([3]; single dose 900 mg): 53568 ng·h/mL
- Cmax for valsartan ([3]; single dose 900 mg): 8374 ng/mL
- t1/2 for valsartan ([3]; single dose 900 mg): 14.9 h
- tmax for valsartan ([3]; single dose 900 mg): 2.2 h
- AUC0-24 for valsartan ([3]; single dose 1200 mg): 60118 ng·h/mL
- Cmax for valsartan ([3]; single dose 1200 mg): 7448 ng/mL
- t1/2 for valsartan ([3]; single dose 1200 mg): 8.9 h
- tmax for valsartan ([3]; single dose 1200 mg): 2.2 h
